How the values were obtained:
[1] = molecular target: T1, Inhibitor of nuclear factor kappa-B kinase subunit beta (Homo sapiens) (UniProt O14920); assay: Inhibition of human full length IKK beta expressed in baculovirus assessed as substrate phosphorylation using fluorescence-labelled peptides as substrate at 95 uM after 90 mins by microfluidic peptide phosphorylation assay
T1 sequence (whole entry): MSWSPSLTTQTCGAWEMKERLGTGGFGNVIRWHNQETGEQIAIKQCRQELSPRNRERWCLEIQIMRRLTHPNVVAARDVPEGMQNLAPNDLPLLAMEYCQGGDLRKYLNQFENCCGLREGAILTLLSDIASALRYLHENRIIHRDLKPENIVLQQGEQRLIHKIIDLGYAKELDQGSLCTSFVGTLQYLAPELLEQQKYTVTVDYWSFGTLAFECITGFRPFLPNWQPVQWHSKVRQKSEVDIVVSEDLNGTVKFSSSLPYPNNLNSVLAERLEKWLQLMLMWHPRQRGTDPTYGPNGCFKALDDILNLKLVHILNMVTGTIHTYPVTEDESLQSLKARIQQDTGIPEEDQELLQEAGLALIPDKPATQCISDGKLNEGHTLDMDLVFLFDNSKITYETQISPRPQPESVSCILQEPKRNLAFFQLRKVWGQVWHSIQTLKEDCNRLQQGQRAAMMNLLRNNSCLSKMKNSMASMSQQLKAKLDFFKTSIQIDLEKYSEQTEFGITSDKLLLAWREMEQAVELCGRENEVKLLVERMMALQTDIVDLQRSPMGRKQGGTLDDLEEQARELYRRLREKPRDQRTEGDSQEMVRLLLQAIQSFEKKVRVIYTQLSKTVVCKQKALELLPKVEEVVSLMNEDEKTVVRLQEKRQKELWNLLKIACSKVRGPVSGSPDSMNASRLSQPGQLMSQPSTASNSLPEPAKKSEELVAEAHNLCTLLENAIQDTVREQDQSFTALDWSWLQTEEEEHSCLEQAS

[2] = molecular target: T2, Serine/threonine-protein kinase D1 (Homo sapiens) (UniProt Q15139); assay: Inhibition of human full length PKD1 expressed in baculovirus assessed as substrate phosphorylation using fluorescence-labelled peptides as substrate at 95 uM after 90 mins by microfluidic peptide phosphorylation assay
T2 sequence (whole entry): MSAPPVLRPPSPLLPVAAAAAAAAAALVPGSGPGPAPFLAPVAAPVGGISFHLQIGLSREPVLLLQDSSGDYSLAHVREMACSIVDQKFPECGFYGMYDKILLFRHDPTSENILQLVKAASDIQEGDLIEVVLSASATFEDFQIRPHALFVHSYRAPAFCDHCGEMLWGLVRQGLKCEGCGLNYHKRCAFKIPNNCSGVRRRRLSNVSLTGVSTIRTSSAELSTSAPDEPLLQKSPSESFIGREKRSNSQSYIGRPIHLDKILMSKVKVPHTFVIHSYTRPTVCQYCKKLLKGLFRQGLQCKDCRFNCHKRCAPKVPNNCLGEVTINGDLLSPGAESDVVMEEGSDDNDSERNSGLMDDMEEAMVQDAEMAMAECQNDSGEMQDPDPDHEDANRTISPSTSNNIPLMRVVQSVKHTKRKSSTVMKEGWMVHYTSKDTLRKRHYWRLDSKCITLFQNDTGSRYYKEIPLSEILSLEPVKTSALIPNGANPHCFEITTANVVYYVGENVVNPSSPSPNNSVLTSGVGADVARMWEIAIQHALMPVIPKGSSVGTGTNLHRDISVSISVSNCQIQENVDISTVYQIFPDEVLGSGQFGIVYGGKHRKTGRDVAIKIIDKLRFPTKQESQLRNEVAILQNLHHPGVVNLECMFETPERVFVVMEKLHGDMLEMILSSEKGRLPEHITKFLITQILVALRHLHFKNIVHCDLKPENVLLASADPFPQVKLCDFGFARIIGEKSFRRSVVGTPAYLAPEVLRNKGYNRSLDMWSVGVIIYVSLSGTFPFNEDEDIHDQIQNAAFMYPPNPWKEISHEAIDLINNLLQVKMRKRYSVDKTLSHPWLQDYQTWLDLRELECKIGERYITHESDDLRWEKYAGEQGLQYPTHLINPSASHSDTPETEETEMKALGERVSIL

[3] = molecular target: MAP/microtubule affinity-regulating kinase 3 (Homo sapiens) (UniProt P27448); assay: Inhibition of human full length c-TAK1 expressed in Escherichia coli cell assessed as substrate phosphorylation using fluorescence-labelled peptides as substrate at 0.06 uM after 90 mins by microfluidic peptide phosphorylation assay
Chain of MAP/microtubule affinity-regulating kinase 3 (Homo sapiens) (P27448 whole entry, looked up): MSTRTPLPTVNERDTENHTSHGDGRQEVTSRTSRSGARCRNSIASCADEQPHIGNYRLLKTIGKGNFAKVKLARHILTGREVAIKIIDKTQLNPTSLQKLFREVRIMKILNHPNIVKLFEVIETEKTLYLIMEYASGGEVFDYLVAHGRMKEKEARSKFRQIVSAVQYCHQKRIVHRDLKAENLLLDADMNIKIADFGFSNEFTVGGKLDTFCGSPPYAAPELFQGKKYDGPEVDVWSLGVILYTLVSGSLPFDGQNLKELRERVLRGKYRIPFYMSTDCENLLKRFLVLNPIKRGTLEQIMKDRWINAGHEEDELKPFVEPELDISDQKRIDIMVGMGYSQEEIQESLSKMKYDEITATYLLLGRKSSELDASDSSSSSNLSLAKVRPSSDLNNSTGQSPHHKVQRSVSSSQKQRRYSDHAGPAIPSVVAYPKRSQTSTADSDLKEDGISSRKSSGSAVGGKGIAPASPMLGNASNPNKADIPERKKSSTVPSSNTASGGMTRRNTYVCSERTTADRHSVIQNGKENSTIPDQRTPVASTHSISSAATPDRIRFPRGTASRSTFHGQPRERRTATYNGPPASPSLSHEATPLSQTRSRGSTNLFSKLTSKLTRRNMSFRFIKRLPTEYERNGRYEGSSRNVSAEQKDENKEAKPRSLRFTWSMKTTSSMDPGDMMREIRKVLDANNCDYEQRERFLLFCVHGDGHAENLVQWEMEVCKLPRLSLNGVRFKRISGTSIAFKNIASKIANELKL

[4] = molecular target: T3, Calcium/calmodulin-dependent protein kinase type IV (Homo sapiens) (UniProt Q16566); assay: Inhibition of human full length CAMK4 expressed in baculovirus assessed as substrate phosphorylation using fluorescence-labelled peptides as substrate at […] after 90 mins by microfluidic peptide phosphorylation assay
T3 sequence (whole entry): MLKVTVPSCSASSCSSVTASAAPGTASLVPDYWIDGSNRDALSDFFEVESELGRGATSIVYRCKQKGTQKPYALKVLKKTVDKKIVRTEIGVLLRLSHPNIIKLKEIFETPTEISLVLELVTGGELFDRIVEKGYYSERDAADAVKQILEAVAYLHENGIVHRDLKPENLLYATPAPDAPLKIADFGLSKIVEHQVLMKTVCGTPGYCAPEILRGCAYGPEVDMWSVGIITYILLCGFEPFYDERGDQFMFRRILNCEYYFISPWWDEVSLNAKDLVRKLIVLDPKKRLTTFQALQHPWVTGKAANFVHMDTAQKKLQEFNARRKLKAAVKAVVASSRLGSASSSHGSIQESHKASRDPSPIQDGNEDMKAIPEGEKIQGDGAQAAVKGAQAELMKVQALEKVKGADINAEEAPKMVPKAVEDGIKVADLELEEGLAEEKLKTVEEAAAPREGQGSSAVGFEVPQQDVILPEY

[5] = molecular target: Serine/threonine-protein kinase PAK 2 (Homo sapiens) (UniProt Q13177); assay: Inhibition of human truncated PAK2 expressed in Escherichia coli cell assessed as substrate phosphorylation using fluorescence-labelled peptides as substrate at […] after 90 mins by microfluidic peptide phosphorylation assay
Chain of Serine/threonine-protein kinase PAK 2 (Homo sapiens) (Q13177 whole entry, the tested form may be a part): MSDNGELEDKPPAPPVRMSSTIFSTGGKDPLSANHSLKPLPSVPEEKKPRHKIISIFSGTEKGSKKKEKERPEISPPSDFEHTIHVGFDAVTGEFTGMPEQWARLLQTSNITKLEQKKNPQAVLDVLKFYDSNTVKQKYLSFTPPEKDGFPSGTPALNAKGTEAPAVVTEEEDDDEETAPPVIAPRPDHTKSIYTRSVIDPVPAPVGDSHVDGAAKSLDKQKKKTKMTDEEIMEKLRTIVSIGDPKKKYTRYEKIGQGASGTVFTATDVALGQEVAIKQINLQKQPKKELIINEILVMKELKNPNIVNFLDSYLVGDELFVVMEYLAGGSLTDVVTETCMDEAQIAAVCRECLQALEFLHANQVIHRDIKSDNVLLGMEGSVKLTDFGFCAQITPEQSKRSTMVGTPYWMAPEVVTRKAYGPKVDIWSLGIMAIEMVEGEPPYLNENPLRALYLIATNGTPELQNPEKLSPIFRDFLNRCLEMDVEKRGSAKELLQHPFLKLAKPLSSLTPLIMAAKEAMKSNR

[6] = molecular target: Ribosomal protein S6 kinase alpha-5 (Homo sapiens) (UniProt O75582); assay: Inhibition of human full length MSK1 expressed in baculovirus assessed as substrate phosphorylation using fluorescence-labelled peptides as substrate at 0.2 uM after 90 mins by microfluidic peptide phosphorylation assay
Chain of Ribosomal protein S6 kinase alpha-5 (Homo sapiens) (O75582 whole entry, looked up): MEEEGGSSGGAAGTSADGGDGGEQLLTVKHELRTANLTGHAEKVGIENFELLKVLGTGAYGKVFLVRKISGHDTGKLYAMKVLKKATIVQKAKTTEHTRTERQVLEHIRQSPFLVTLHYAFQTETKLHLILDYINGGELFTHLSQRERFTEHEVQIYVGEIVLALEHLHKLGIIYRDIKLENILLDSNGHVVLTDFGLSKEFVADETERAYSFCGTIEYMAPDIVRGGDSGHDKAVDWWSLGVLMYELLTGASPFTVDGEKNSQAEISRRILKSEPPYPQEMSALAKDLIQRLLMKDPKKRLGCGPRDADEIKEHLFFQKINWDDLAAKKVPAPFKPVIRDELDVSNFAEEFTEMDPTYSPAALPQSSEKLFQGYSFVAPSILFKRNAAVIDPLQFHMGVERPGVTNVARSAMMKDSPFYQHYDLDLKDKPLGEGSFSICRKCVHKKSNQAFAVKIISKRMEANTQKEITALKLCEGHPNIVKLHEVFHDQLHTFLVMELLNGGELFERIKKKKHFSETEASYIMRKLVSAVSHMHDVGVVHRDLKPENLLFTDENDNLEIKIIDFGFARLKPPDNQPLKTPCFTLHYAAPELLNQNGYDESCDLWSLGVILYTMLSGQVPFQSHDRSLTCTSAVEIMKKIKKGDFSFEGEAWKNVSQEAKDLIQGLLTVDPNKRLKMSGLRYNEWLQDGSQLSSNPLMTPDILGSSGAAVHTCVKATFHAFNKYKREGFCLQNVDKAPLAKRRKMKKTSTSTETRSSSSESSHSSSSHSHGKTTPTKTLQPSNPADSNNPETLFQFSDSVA

[7] = molecular target: Calcium/calmodulin-dependent protein kinase type II subunit delta (Homo sapiens) (UniProt Q13557); assay: Inhibition of human full length CAMK2D expressed in baculovirus assessed as substrate phosphorylation using fluorescence-labelled peptides as substrate at 8 uM after 90 mins by microfluidic peptide phosphorylation assay
Chain of Calcium/calmodulin-dependent protein kinase type II subunit delta (Homo sapiens) (Q13557 whole entry): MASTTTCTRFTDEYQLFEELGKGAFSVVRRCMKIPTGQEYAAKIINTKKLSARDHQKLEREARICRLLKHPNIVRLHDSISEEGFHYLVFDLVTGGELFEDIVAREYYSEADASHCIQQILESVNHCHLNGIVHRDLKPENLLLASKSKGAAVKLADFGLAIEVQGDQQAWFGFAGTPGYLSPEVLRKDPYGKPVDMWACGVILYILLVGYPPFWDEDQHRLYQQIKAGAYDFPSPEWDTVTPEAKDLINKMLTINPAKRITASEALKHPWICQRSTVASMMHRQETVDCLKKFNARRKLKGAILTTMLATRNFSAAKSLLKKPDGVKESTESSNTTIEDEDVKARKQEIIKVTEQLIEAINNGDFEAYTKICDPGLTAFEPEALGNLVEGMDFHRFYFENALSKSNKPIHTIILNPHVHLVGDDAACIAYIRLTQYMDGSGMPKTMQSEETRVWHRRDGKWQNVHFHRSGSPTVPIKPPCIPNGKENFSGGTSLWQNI

NCCc1ccc(-c2ncnc3[nH]cnc23)cc1
inhibition [1]: 91% | inhibition [2]: 44%

NC1(Cc2ccc(Cl)cc2)CCN(c2ncnc3[nH]ccc23)CC1
inhibition [3]: 0%

COC(=O)c1cnc(Nc2cnc(C#N)cn2)cc1NCC1CCNCC1
inhibition [4]: 0.5% | inhibition [5]: 1.5%

Clc1ccc(C2(c3ccc(-c4ncnc5[nH]cnc45)cc3)CCNCC2)cc1
inhibition [6]: 90%

NCC1CCN(c2ncnc3[nH]ccc23)CC1
inhibition [7]: 25%

Reference: ChEMBL document CHEMBL3132769, “Fragment growing to retain or alter the selectivity of anchored kinase hinge-binding fragments” (Medchemcomm, 2014)
